Results as given in PubChem BioAssay AID2060622 (Molecular Pharmacology Branch, DTP, NCI, 2025).
Values joined by “and” are separate entries in the source; they are usually repeats but may differ in a detail not shown here. Identical values can stand only once.

Test system: 242566-281-R-J2-PDC complex spheroid viability
Experiment: Anticancer human tumor 242566-281-R-J2-PDC patient-derived pancreatic carcinoma cell line growth inhibition [CLK]
Conditions: for viability, T/C: stronger effect = lower value
In short: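 Patient-derived tumor cells grown as complex spheroids with HUVEC endothelial cells and mesenchymal stem cells, treated with drug combinations. Concentrations descend in half-log steps from near clinical Cmax, or from 10 microM if Cmax unknown.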

[1] = curve of first compound, second compound 0.0316 µM
[2] = curve of first compound, second compound 0.1 µM
[3] = curve of first compound, second compound 0.316 µM
[4] = curve of first compound, second compound 1 µM
[5] = curve of first compound, second compound 3.16 µM
[6] = curve of first compound, second compound 10 µM
[7] = second compound 0.0316 µM, first compound 0.0316 µM
[8] = second compound 0.0316 µM, first compound 0.1 µM
[9] = second compound 0.0316 µM, first compound 0.316 µM
[10] = second compound 0.0316 µM, first compound 1 µM
[11] = second compound 0.0316 µM, first compound 3.16 µM
[12] = second compound 0.0316 µM, first compound 10 µM
[13] = second compound 0.1 µM, first compound 0.0316 µM
[14] = second compound 0.1 µM, first compound 0.1 µM
[15] = second compound 0.1 µM, first compound 0.316 µM
[16] = second compound 0.1 µM, first compound 1 µM
[17] = second compound 0.1 µM, first compound 3.16 µM
[18] = second compound 0.1 µM, first compound 10 µM
[19] = second compound 0.316 µM, first compound 0.0316 µM
[20] = second compound 0.316 µM, first compound 0.1 µM
[21] = second compound 0.316 µM, first compound 0.316 µM
[22] = second compound 0.316 µM, first compound 1 µM
[23] = second compound 0.316 µM, first compound 3.16 µM
[24] = second compound 0.316 µM, first compound 10 µM
[25] = second compound 1 µM, first compound 0.0316 µM
[26] = second compound 1 µM, first compound 0.1 µM
[27] = second compound 1 µM, first compound 0.316 µM
[28] = second compound 1 µM, first compound 1 µM
[29] = second compound 1 µM, first compound 3.16 µM
[30] = second compound 1 µM, first compound 10 µM
[31] = second compound 3.16 µM, first compound 0.0316 µM
[32] = second compound 3.16 µM, first compound 0.1 µM
[33] = second compound 3.16 µM, first compound 0.316 µM
[34] = second compound 3.16 µM, first compound 1 µM
[35] = second compound 3.16 µM, first compound 3.16 µM
[36] = second compound 3.16 µM, first compound 10 µM
[37] = second compound 10 µM, first compound 0.0316 µM
[38] = second compound 10 µM, first compound 0.1 µM
[39] = second compound 10 µM, first compound 0.316 µM
[40] = second compound 10 µM, first compound 1 µM
[41] = second compound 10 µM, first compound 3.16 µM
[42] = second compound 10 µM, first compound 10 µM
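Further: spheroids exposed to compounds for 7 days before readout.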
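Wherever viability, T/C is given: 100% = DMSO vehicle control wells.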

`CC(CO)NC(=O)c1cc(-c2ccc(Cl)cc2)nn(-c2cnn(C)c2)c1=O` (stereo not drawn) + CN1CCN(c2cc(C(=O)Nc3cc4cc(-c5cnn(C)c5)ccc4cn3)ccn2)CC1 was tested, and the IC50 [1] was over 10000 nM, the IC50 [2] was over 10000 nM and the IC50 [3] was under 31.6 nM. The IC50 [4] was under 31.6 nM, the IC50 [5] was under 31.6 nM and the IC50 [6] was under 31.6 nM. It also gave a viability, T/C [7] of 95.6%, a viability, T/C [8] of 117% and a viability, T/C [9] of 129%. It also gave a viability, T/C [10] of 106%, a viability, T/C [11] of 101% and a viability, T/C [12] of 93.6%. For the same compound, the viability, T/C [13] was 93.5%, the viability, T/C [14] was 104% and the viability, T/C [15] was 87.3%. The viability, T/C [16] was 94%, the viability, T/C [17] was 101% and the viability, T/C [18] was 72.3%. It also gave a viability, T/C [19] of 38.2%, a viability, T/C [20] of 43% and a viability, T/C [21] of 39.9%. For the same compound, the viability, T/C [22] was 36.5%, the viability, T/C [23] was 41.5% and the viability, T/C [24] was 37.6%. For the same compound, the viability, T/C [25] was 4.91%, the viability, T/C [26] was 5.11% and the viability, T/C [27] was 5.14%. For the same compound, the viability, T/C [28] was 5.04%, the viability, T/C [29] was 4.52% and the viability, T/C [30] was 4.45%. The viability, T/C [31] was 6.35%, the viability, T/C [32] was 7.68% and the viability, T/C [33] was 8.66%. It also gave a viability, T/C [34] of 7.21%, a viability, T/C [35] of 7.5% and a viability, T/C [36] of 6.89%. The viability, T/C [37] was 2.09%, the viability, T/C [38] was 2.51% and the viability, T/C [39] was 2.07%. It also gave a viability, T/C [40] of 2.91%, a viability, T/C [41] of 2.05% and a viability, T/C [42] of 0.93%.

For `Nc1ccccc1NC(=O)c1ccc(CNC(=O)OCc2cccnc2)cc1` + CN1CCN(c2cc(C(=O)Nc3cc4cc(-c5cnn(C)c5)ccc4cn3)ccn2)CC1, the IC50 [1] was 2690 nM, the IC50 [2] was 1540 nM and the IC50 [3] was under 31.6 nM. It also gave an IC50 [4] of under 31.6 nM, an IC50 [5] of under 31.6 nM and an IC50 [6] of under 31.6 nM. For the same compound, the viability, T/C [7] was 95.9%, the viability, T/C [8] was 96.1% and the viability, T/C [9] was 84.2%. For the same compound, the viability, T/C [10] was 83.5%, the viability, T/C [11] was 44.2% and the viability, T/C [12] was 10.9%. The viability, T/C [13] was 92.5%, the viability, T/C [14] was 82.8% and the viability, T/C [15] was 70.5%. For the same compound, the viability, T/C [16] was 65.8%, the viability, T/C [17] was 31.6% and the viability, T/C [18] was 5.31%. The viability, T/C [19] was 28.3%, the viability, T/C [20] was 29.4% and the viability, T/C [21] was 28.4%. It also gave a viability, T/C [22] of 20.9%, a viability, T/C [23] of 6.85% and a viability, T/C [24] of 0.46%. For the same compound, the viability, T/C [25] was 4.47%, the viability, T/C [26] was 4.78% and the viability, T/C [27] was 4.55%. It also gave a viability, T/C [28] of 3.08%, a viability, T/C [29] of 2.04% and a viability, T/C [30] of 1.1%. For the same compound, the viability, T/C [31] was 9.27%, the viability, T/C [32] was 7.2% and the viability, T/C [33] was 7.84%. It also gave a viability, T/C [34] of 6.26%, a viability, T/C [35] of 5.4% and a viability, T/C [36] of 3.16%. For the same compound, the viability, T/C [37] was 2.19%, the viability, T/C [38] was 1.81% and the viability, T/C [39] was 1.73%. The viability, T/C [40] was 2.14%, the viability, T/C [41] was 1.57% and the viability, T/C [42] was 0.86%.

`CCCS(=O)(=O)Nc1ccc(F)c(C(=O)c2c[nH]c3ncc(-c4ccc(Cl)cc4)cc23)c1F` was tested, and the viability, T/C (compound 0.0316 µM) was 109% and 86.7%, the viability, T/C (compound 0.1 µM) was 104% and 98.7% and the viability, T/C (compound 0.316 µM) was 94% and 81.7%. The viability, T/C (compound 1 µM) was 106% and 86%, the viability, T/C (compound 3.16 µM) was 104% and 115% and the viability, T/C (compound 10 µM) was 6.44% and 6.7%. For the same compound, the IC50 (curve of compound) was 5960 nM and 5640 nM.

Compound `CC1COCCN1c1cc(C2(S(C)(=N)=O)CC2)nc(-c2ccnc3[nH]ccc23)n1` (stereo not drawn) + CN1CCN(c2cc(C(=O)Nc3cc4cc(-c5cnn(C)c5)ccc4cn3)ccn2)CC1 has an IC50 [1] of 6190 nM, an IC50 [2] of 4500 nM and an IC50 [3] of under 31.6 nM. It also gave an IC50 [4] of under 31.6 nM, an IC50 [5] of under 31.6 nM and an IC50 [6] of under 31.6 nM. It also gave a viability, T/C [7] of 119%, a viability, T/C [8] of 103% and a viability, T/C [9] of 97%. The viability, T/C [10] was 104%, the viability, T/C [11] was 73.8% and the viability, T/C [12] was 31.6%. The viability, T/C [13] was 103%, the viability, T/C [14] was 97.8% and the viability, T/C [15] was 97.3%. For the same compound, the viability, T/C [16] was 83.1%, the viability, T/C [17] was 62.6% and the viability, T/C [18] was 22.6%. For the same compound, the viability, T/C [19] was 36.3%, the viability, T/C [20] was 28.3% and the viability, T/C [21] was 31.2%. For the same compound, the viability, T/C [22] was 20.4%, the viability, T/C [23] was 17.5% and the viability, T/C [24] was 8.72%. For the same compound, the viability, T/C [25] was 4.95%, the viability, T/C [26] was 4.97% and the viability, T/C [27] was 4.82%. The viability, T/C [28] was 5.18%, the viability, T/C [29] was 5.87% and the viability, T/C [30] was 6.94%. For the same compound, the viability, T/C [31] was 7.02%, the viability, T/C [32] was 7.62% and the viability, T/C [33] was 8.37%. It also gave a viability, T/C [34] of 7.12%, a viability, T/C [35] of 8.01% and a viability, T/C [36] of 9.37%. The viability, T/C [37] was 2.02%, the viability, T/C [38] was 1.85% and the viability, T/C [39] was 2.1%. It also gave a viability, T/C [40] of 1.7%, a viability, T/C [41] of 1.8% and a viability, T/C [42] of 1.35%.
